From ChEMBL document CHEMBL3351732, “Potent bisimidazole-based HCV NS5A inhibitors bearing annulated tricyclic motifs” (Bioorg Med Chem Lett, 2014)

How the values were obtained:
Hepatitis C virus [1] = experiment: Antiviral activity against HCV genotype 1a infected in human HuH7 cells by luciferase reporter gene assay; assay type: functional, cell-based, Hepacivirus hominis; settings: subtype 1a, Huh-7
Hepatitis C virus [2] = experiment: Antiviral activity against HCV genotype 1b infected in human HuH7 cells by luciferase reporter gene assay; assay type: functional, cell-based, Hepacivirus hominis; settings: Huh-7
Hepatitis C virus [3] = experiment: Antiviral activity against HCV genotype 3a infected in human HuH7 cells by luciferase reporter gene assay; assay type: functional, cell-based, Hepacivirus hominis; settings: Huh-7
[4] = Clearance in Sprague-Dawley rat at 1 mg/kg, iv; assay type: ADME, organism-based; set-up: dose 1 mg/kg, route intravenous; settings: Sprague-Dawley, in vivo
[5] = Volume of distribution at steady state in Sprague-Dawley rat at 1 mg/kg, iv; assay type: ADME, organism-based; set-up: dose 1 mg/kg, route intravenous; settings: in vivo, read-out: Vdss
[6] = Half life in Sprague-Dawley rat at 1 mg/kg, iv; assay type: ADME, organism-based; set-up: dose 1 mg/kg, route intravenous; settings: in vivo
[7] = AUC(last) in Sprague-Dawley rat at 1 mg/kg, iv; assay type: ADME, organism-based, Plasma; set-up: time 0 - last, dose 1 mg/kg, route intravenous; settings: Sprague-Dawley, plasma
[8] = Tmax in Sprague-Dawley rat at 5 mg/kg, po; assay type: ADME, organism-based; set-up: dose 5 mg/kg, route oral; settings: in vivo
[9] = Cmax in Sprague-Dawley rat at 5 mg/kg, po; assay type: ADME, organism-based; set-up: dose 5 mg/kg, route oral; settings: in vivo
[10] = AUC(last) in Sprague-Dawley rat at 5 mg/kg, po; assay type: ADME, organism-based; set-up: dose 5 mg/kg, route oral, time 0 - last; settings: plasma
[11] = Oral bioavailability in Sprague-Dawley rat at 5 mg/kg; assay type: ADME, organism-based; settings: in vivo
[12] = Drug level in Sprague-Dawley rat liver at 5 mg/kg, po measured 4 hrs post dose; assay type: ADME, organism-based; set-up: dose 5 mg/kg, route oral; settings: read-out: Drug uptake
[13] = Plasma concentration in Sprague-Dawley rat at 5 mg/kg, po measured 4 hrs post dose; assay type: ADME, organism-based; set-up: dose 5 mg/kg, route oral
[14] = Tmax in Sprague-Dawley rat at 75 mg/kg, po; assay type: ADME, organism-based; set-up: dose 75 mg/kg, route oral; settings: in vivo
[15] = Cmax in Sprague-Dawley rat at 75 mg/kg, po; assay type: ADME, organism-based; set-up: dose 75 mg/kg, route oral; settings: in vivo
[16] = AUC(last) in Sprague-Dawley rat at 75 mg/kg, po; assay type: ADME, organism-based; set-up: time 0 - last, dose 75 mg/kg, route oral; settings: plasma
[17] = Tmax in Sprague-Dawley rat at 250 mg/kg, po; assay type: ADME, organism-based; set-up: dose 250 mg/kg, route oral; settings: in vivo
[18] = Cmax in Sprague-Dawley rat at 250 mg/kg, po; assay type: ADME, organism-based; set-up: dose 250 mg/kg, route oral; settings: in vivo
[19] = AUC(last) in Sprague-Dawley rat at 250 mg/kg, po; assay type: ADME, organism-based; set-up: time 0 - last, dose 250 mg/kg, route oral; settings: plasma
[20] = Clearance in beagle dog at 1 mg/kg, iv; assay type: ADME, organism-based, Canis lupus familiaris; set-up: dose 1 mg/kg, route intravenous; settings: in vivo
[21] = Volume of distribution at steady state in beagle dog at 1 mg/kg, iv; assay type: ADME, organism-based, Canis lupus familiaris; set-up: dose 1 mg/kg, route intravenous; settings: in vivo, read-out: Vdss
[22] = Half life in beagle dog at 1 mg/kg, iv; assay type: ADME, organism-based, Canis lupus familiaris; set-up: dose 1 mg/kg, route intravenous; settings: in vivo
[23] = AUC(last) in beagle dog at 1 mg/kg, iv; assay type: ADME, organism-based, Canis lupus familiaris; set-up: time 0 - last, dose 1 mg/kg, route intravenous; settings: plasma
[24] = Tmax in beagle dog at 5 mg/kg, po; assay type: ADME, organism-based, Canis lupus familiaris; set-up: dose 5 mg/kg, route oral; settings: in vivo
[25] = Cmax in beagle dog at 5 mg/kg, po; assay type: ADME, organism-based, Canis lupus familiaris; set-up: dose 5 mg/kg, route oral; settings: in vivo
[26] = AUC(last) in beagle dog at 5 mg/kg, po; assay type: ADME, organism-based, Canis lupus familiaris; set-up: time 0 - last, dose 5 mg/kg, route oral; settings: plasma
[27] = Oral bioavailability in beagle dog at 5 mg/kg; assay type: ADME, organism-based, Canis lupus familiaris; settings: in vivo
[28] = Tmax in beagle dog at 75 mg/kg, po; assay type: ADME, organism-based, Canis lupus familiaris; set-up: dose 75 mg/kg, route oral; settings: in vivo
[29] = Cmax in beagle dog at 75 mg/kg, po; assay type: ADME, organism-based, Canis lupus familiaris; set-up: dose 75 mg/kg, route oral; settings: in vivo
[30] = AUC(last) in beagle dog at 75 mg/kg, po; assay type: ADME, organism-based, Canis lupus familiaris; set-up: time 0 - last, dose 75 mg/kg, route oral; settings: plasma
[31] = Tmax in beagle dog at 250 mg/kg, po; assay type: ADME, organism-based, Canis lupus familiaris; set-up: dose 250 mg/kg, route oral; settings: in vivo
[32] = Cmax in beagle dog at 250 mg/kg, po; assay type: ADME, organism-based, Canis lupus familiaris; set-up: dose 250 mg/kg, route oral; settings: in vivo
[33] = AUC(last) in beagle dog at 250 mg/kg, po; assay type: ADME, organism-based, Canis lupus familiaris; set-up: dose 250 mg/kg, route oral, time 0 - last; settings: plasma
[34] = Clearance in cynomolgus monkey at 1 mg/kg, iv; assay type: ADME, organism-based, Macaca fascicularis; set-up: dose 1 mg/kg, route intravenous; settings: in vivo
[35] = Volume of distribution at steady state in cynomolgus monkey at 1 mg/kg, iv; assay type: ADME, organism-based, Macaca fascicularis; set-up: dose 1 mg/kg, route intravenous; settings: in vivo, read-out: Vdss
[36] = Half life in cynomolgus monkey at 1 mg/kg, iv; assay type: ADME, organism-based, Macaca fascicularis; set-up: dose 1 mg/kg, route intravenous; settings: in vivo
[37] = AUC(last) in cynomolgus monkey at 1 mg/kg, iv; assay type: ADME, organism-based, Macaca fascicularis; set-up: time 0 - last, dose 1 mg/kg, route intravenous; settings: plasma
[38] = Tmax in cynomolgus monkey at 5 mg/kg, po; assay type: ADME, organism-based, Macaca fascicularis; set-up: dose 5 mg/kg, route oral; settings: in vivo
[39] = Cmax in cynomolgus monkey at 5 mg/kg, po; assay type: ADME, organism-based, Macaca fascicularis; set-up: dose 5 mg/kg, route oral; settings: in vivo
[40] = AUC(last) in cynomolgus monkey at 5 mg/kg, po; assay type: ADME, organism-based, Macaca fascicularis; set-up: time 0 - last, dose 5 mg/kg, route oral; settings: plasma
[41] = Oral bioavailability in cynomolgus monkey at 5 mg/kg; assay type: ADME, organism-based, Macaca fascicularis; settings: in vivo
[42] = Tmax in cynomolgus monkey at 75 mg/kg, po; assay type: ADME, organism-based, Macaca fascicularis; set-up: dose 75 mg/kg, route oral; settings: in vivo
[43] = Cmax in cynomolgus monkey at 75 mg/kg, po; assay type: ADME, organism-based, Macaca fascicularis; set-up: dose 75 mg/kg, route oral; settings: in vivo
[44] = AUC(last) in cynomolgus monkey at 75 mg/kg, po; assay type: ADME, organism-based, Macaca fascicularis; set-up: time 0 - last, dose 75 mg/kg, route oral; settings: plasma
[45] = Tmax in cynomolgus monkey at 250 mg/kg, po; assay type: ADME, organism-based, Macaca fascicularis; set-up: dose 250 mg/kg, route oral; settings: in vivo
[46] = Cmax in cynomolgus monkey at 250 mg/kg, po; assay type: ADME, organism-based, Macaca fascicularis; set-up: dose 250 mg/kg, route oral; settings: in vivo
[47] = AUC(last) in cynomolgus monkey at 250 mg/kg, po; assay type: ADME, organism-based, Macaca fascicularis; set-up: time 0 - last, dose 250 mg/kg, route oral; settings: plasma
Hepatitis C virus [48] = experiment: Antiviral activity against HCV genotype 4a infected in human HuH7 cells by luciferase reporter gene assay; assay type: functional, cell-based, Hepacivirus hominis; settings: Huh-7
Hepatitis C virus [49] = experiment: Antiviral activity against HCV genotype 5a infected in human HuH7 cells by luciferase reporter gene assay; assay type: functional, cell-based, Hepacivirus hominis; settings: Huh-7
Hepatitis C virus [50] = experiment: Antiviral activity against HCV genotype 6a infected in human HuH7 cells by luciferase reporter gene assay; assay type: functional, cell-based, Hepacivirus hominis; settings: Huh-7
[51] = Tmax in Sprague-Dawley rat at 5 mg/kg, po formulated with 5%MC, 95% saline; assay type: ADME, organism-based; set-up: dose 5 mg/kg, route oral; settings: in vivo
[52] = Cmax in Sprague-Dawley rat at 5 mg/kg, po formulated with 5%MC, 95% saline; assay type: ADME, organism-based; set-up: dose 5 mg/kg, route oral; settings: in vivo
[53] = AUC(last) in Sprague-Dawley rat at 5 mg/kg, po formulated with 5%MC, 95% saline; assay type: ADME, organism-based; set-up: time 0 - last, dose 5 mg/kg, route oral; settings: plasma
[54] = Oral bioavailability in Sprague-Dawley rat at 5 mg/kg formulated with 5%MC, 95% saline; assay type: ADME, organism-based; settings: in vivo

- EC50 (Hepatitis C virus [1]): 73 pM
- EC50 (Hepatitis C virus [2]): 11 pM
- EC50 (Hepatitis C virus [3]): 290 pM
- clearance [4]: 17.8 mL/min/kg
- Vd [5]: 1.8 L/kg
- half-life [6]: 1.41 h
- AUC(0-t) [7]: 926 ng·h/mL
- Tmax [8]: 3 h
- Cmax [9]: 874 ng/mL
- AUC(0-t) [10]: 5250 ng·h/mL
- bioavailability [11]: 112%
- concentration at 4 h [12]: 2610 ng/mL
- concentration at 4 h [13]: 833 ng/mL
- Tmax [14]: 4 h
- Cmax [15]: 12400 ng/mL
- AUC(0-t) [16]: 137000 ng·h/mL
- Tmax [17]: 3.33 h
- Cmax [18]: 16200 ng/mL
- AUC(0-t) [19]: 187000 ng·h/mL
- clearance [20]: 2.67 mL/min/kg
- Vd [21]: 0.74 L/kg
- half-life [22]: 3.77 h
- AUC(0-t) [23]: 6180 ng·h/mL
- Tmax [24]: 1 h
- Cmax [25]: 2760 ng/mL
- AUC(0-t) [26]: 16500 ng·h/mL
- bioavailability [27]: 53.4%
- Tmax [28]: 4 h
- Cmax [29]: 6400 ng/mL
- AUC(0-t) [30]: 83000 ng·h/mL
- Tmax [31]: 5 h
- Cmax [32]: 12200 ng/mL
- AUC(0-t) [33]: 192000 ng·h/mL
- clearance [34]: 7 mL/min/kg
- Vd [35]: 1.33 L/kg
- half-life [36]: 3.56 h
- AUC(0-t) [37]: 2380 ng·h/mL
- Tmax [38]: 3 h
- Cmax [39]: 486 ng/mL
- AUC(0-t) [40]: 3370 ng·h/mL
- bioavailability [41]: 28.4%
- Tmax [42]: 3 h
- Cmax [43]: 3600 ng/mL
- AUC(0-t) [44]: 17800 ng·h/mL
- Tmax [45]: 4 h
- Cmax [46]: 8100 ng/mL
- AUC(0-t) [47]: 46600 ng·h/mL
- EC50 (Hepatitis C virus [48]): 25 pM
- EC50 (Hepatitis C virus [49]): 17 pM
- EC50 (Hepatitis C virus [50]): 62 pM
- Tmax [51]: 0.5 h
- Cmax [52]: 761 ng/mL
- AUC(0-t) [53]: 4120 ng·h/mL
- bioavailability [54]: 88.9%
SMILES: COC(=O)N[C@H](C(=O)N1CCC[C@H]1c1ncc(-c2ccc3c(c2)Oc2ccc(-c4cnc([C@@H]5CCCN5C(=O)[C@@H](NC(=O)OC)C(C)C)[nH]4)cc2C3(C)C)[nH]1)C(C)C
